Measurements published in US12077503B2, “Substituted cyclic amides and their use as herbicides” (FMC CORPORATION, priority 2015, dated 2024).

Assays:
Type in all cases: in vivo
[1] = tested on: barnyardgrass (Echinochloa crus-galli); assay: Test G Post-Emergence Protocol; conditions: Echinochloa crus-galli, post-emergence, 312 h; for pest or weed control at 15.625 g/ha: 15.625 g ai/ha, evaluated after 13 days (100=total damage to plant; 0=no damage to plant), read-out: Barnyardgrass damage rating; for pest or weed control at 62.5 g/ha: 62.5 g ai/ha, read-out: Barnyardgrass damage rating (100=total damage to plant; 0=no damage to plant); for pest or weed control at 62.5 g/ha / pest or weed control at 250 g/ha: evaluated after 13 days; for pest or weed control at 250 g/ha: 250 g ai/ha, read-out: damage to plant, Barnyardgrass (100=total damage to plant; 0=no damage to plant)
Summary of the method: (§1)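 Post-emergence herbicidal damage, scored visually 0–100 at 13 days. Application at 15.625, 62.5 or 250 g/ha onto 8-day-old plants grown under glasshouse control.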

corn (Zea mays) [2] = assay: Test G Post-Emergence Protocol; conditions: Zea mays, post-emergence, 312 h; for plant injury at 15.625 g/ha: 15.625 g ai/ha, evaluated after 13 days (100=total damage to plant; 0=no damage to plant), read-out: Corn damage rating; for plant injury at 62.5 g/ha: 62.5 g ai/ha, read-out: Corn damage rating (100=total damage to plant; 0=no damage to plant); for plant injury at 62.5 g/ha / plant injury at 250 g/ha: evaluated after 13 days; for plant injury at 250 g/ha: 250 g ai/ha, read-out: damage to plant, Corn (100=total damage to plant; 0=no damage to plant)
Summary of the method: as §1

[3] = tested on: ivy-leaved morning glory (Ipomoea hederacea); assay: Test G Post-Emergence Protocol; conditions: Ipomoea, post-emergence, 312 h; for pest or weed control at 15.625 g/ha: 15.625 g ai/ha, evaluated after 13 days (100=total damage to plant; 0=no damage to plant), read-out: Morningglory, Ivy-leaved damage rating; for pest or weed control at 62.5 g/ha: 62.5 g ai/ha, read-out: Morningglory, Ivy-leaved damage rating (100=total damage to plant; 0=no damage to plant); for pest or weed control at 62.5 g/ha / pest or weed control at 250 g/ha: evaluated after 13 days; for pest or weed control at 250 g/ha: 250 g ai/ha, read-out: damage to plant, Morningglory, Ivy-leaved (100=total damage to plant; 0=no damage to plant)
Summary of the method: as §1

[4] = tested on: giant foxtail (Setaria faberi); assay: Test G Post-Emergence Protocol; conditions: Setaria faberi, post-emergence, 312 h; for pest or weed control at 15.625 g/ha: 15.625 g ai/ha, evaluated after 13 days (100=total damage to plant; 0=no damage to plant), read-out: Foxtail, Giant damage rating; for pest or weed control at 62.5 g/ha: 62.5 g ai/ha, read-out: Foxtail, Giant damage rating (100=total damage to plant; 0=no damage to plant); for pest or weed control at 62.5 g/ha / pest or weed control at 250 g/ha: evaluated after 13 days; for pest or weed control at 250 g/ha: 250 g ai/ha, read-out: damage to plant, Foxtail, Giant (100=total damage to plant; 0=no damage to plant)
Summary of the method: as §1

[5] = tested on: redroot pigweed (Amaranthus retroflexus); assay: Test G Post-Emergence Protocol; conditions: Amaranthus retroflexus, post-emergence, 312 h; for pest or weed control at 15.625 g/ha: 15.625 g ai/ha, evaluated after 13 days (100=total damage to plant; 0=no damage to plant), read-out: Pigweed, Redroot damage rating; for pest or weed control at 62.5 g/ha: 62.5 g ai/ha, read-out: Pigweed, Redroot damage rating (100=total damage to plant; 0=no damage to plant); for pest or weed control at 62.5 g/ha / pest or weed control at 250 g/ha: evaluated after 13 days; for pest or weed control at 250 g/ha: 250 g ai/ha, read-out: damage to plant, Pigweed, Redroot (100=total damage to plant; 0=no damage to plant)
Summary of the method: as §1

[6] = tested on: velvetleaf (Abutilon theophrasti); assay: Test G Post-Emergence Protocol; conditions: Abutilon theophrasti, post-emergence, 312 h; for pest or weed control at 15.625 g/ha: 15.625 g ai/ha, evaluated after 13 days (100=total damage to plant; 0=no damage to plant), read-out: Velvetleaf damage rating; for pest or weed control at 62.5 g/ha: 62.5 g ai/ha, read-out: Velvetleaf damage rating (100=total damage to plant; 0=no damage to plant); for pest or weed control at 62.5 g/ha / pest or weed control at 250 g/ha: evaluated after 13 days; for pest or weed control at 250 g/ha: 250 g ai/ha, read-out: damage to plant, Velvetleaf (100=total damage to plant; 0=no damage to plant)
Summary of the method: as §1

[7] = tested on: barnyardgrass (Echinochloa crus-galli); assay: Test G Pre-Emergence Protocol; conditions: Echinochloa crus-galli, pre-emergence, 312 h, evaluated after 13 days; for pest or weed control at 15.625 g/ha: 15.625 g ai/ha, read-out: Barnyard grass damage rating (100=total damage to plant; 0=no damage to plant); for pest or weed control at 62.5 g/ha: 62.5 g ai/ha, 100=total damage to plant, 0=no damage to plant, read-out: plant damage rating, Barnyardgrass; for pest or weed control at 250 g/ha: 250 g ai/ha, read-out: Barnyardgrass damage rating (100=total damage to plant; 0=no damage to plant)
Summary of the method: (§2)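 Scores are visual damage ratings from 0 (no damage) to 100 (total plant kill), taken 13 days after treatment. Compound was sprayed one day post-sowing at 15.625, 62.5 or 250 g/ha in 50:50 acetone/water with 0.5% Tween 20.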

corn (Zea mays) [8] = assay: Test G Pre-Emergence Protocol; conditions: Zea mays, pre-emergence, 312 h, evaluated after 13 days; for plant injury at 15.625 g/ha: 15.625 g ai/ha; for plant injury at 15.625 g/ha / plant injury at 250 g/ha: read-out: Corn damage rating (100=total damage to plant; 0=no damage to plant); for plant injury at 62.5 g/ha: 62.5 g ai/ha, 100=total damage to plant, 0=no damage to plant, read-out: plant damage rating, Corn; for plant injury at 250 g/ha: 250 g ai/ha
Summary of the method: as §2

[9] = tested on: ivy-leaved morning glory (Ipomoea hederacea); assay: Test G Pre-Emergence Protocol; conditions: Ipomoea, pre-emergence, 312 h, evaluated after 13 days; for pest or weed control at 15.625 g/ha: 15.625 g ai/ha, read-out: Morning-glory, Ivy-leaved damage rating (100=total damage to plant; 0=no damage to plant); for pest or weed control at 62.5 g/ha: 62.5 g ai/ha, 100=total damage to plant, 0=no damage to plant, read-out: plant damage rating, Morningglory, Ivy-leaved; for pest or weed control at 250 g/ha: 250 g ai/ha, read-out: Morningglory, Ivy-leaved damage rating (100=total damage to plant; 0=no damage to plant)
Summary of the method: as §2

[10] = tested on: giant foxtail (Setaria faberi); assay: Test G Pre-Emergence Protocol; conditions: Setaria faberi, pre-emergence, 312 h, evaluated after 13 days; for pest or weed control at 15.625 g/ha: 15.625 g ai/ha; for pest or weed control at 15.625 g/ha / pest or weed control at 250 g/ha: read-out: Foxtail, Giant damage rating (100=total damage to plant; 0=no damage to plant); for pest or weed control at 62.5 g/ha: 62.5 g ai/ha, 100=total damage to plant, 0=no damage to plant, read-out: plant damage rating, Foxtail, Giant; for pest or weed control at 250 g/ha: 250 g ai/ha
Summary of the method: as §2

[11] = tested on: redroot pigweed (Amaranthus retroflexus); assay: Test G Pre-Emergence Protocol; conditions: Amaranthus retroflexus, pre-emergence, 312 h, evaluated after 13 days; for pest or weed control at 15.625 g/ha: 15.625 g ai/ha; for pest or weed control at 15.625 g/ha / pest or weed control at 250 g/ha: read-out: Pigweed, Redroot damage rating (100=total damage to plant; 0=no damage to plant); for pest or weed control at 62.5 g/ha: 62.5 g ai/ha, 100=total damage to plant, 0=no damage to plant, read-out: plant damage rating, Pigweed, Redroot; for pest or weed control at 250 g/ha: 250 g ai/ha
Summary of the method: as §2

[12] = tested on: velvetleaf (Abutilon theophrasti); assay: Test G Pre-Emergence Protocol; conditions: Abutilon theophrasti, pre-emergence, 312 h, evaluated after 13 days; for pest or weed control at 15.625 g/ha: 15.625 g ai/ha; for pest or weed control at 15.625 g/ha / pest or weed control at 250 g/ha: read-out: Velvetleaf damage rating (100=total damage to plant; 0=no damage to plant); for pest or weed control at 62.5 g/ha: 62.5 g ai/ha, 100=total damage to plant, 0=no damage to plant, read-out: plant damage rating, Velvetleaf; for pest or weed control at 250 g/ha: 250 g ai/ha
Summary of the method: as §2

SMILES	pest or weed control at 15.625 g/ha [1] [%]	pest or weed control at 62.5 g/ha [1] [%]	pest or weed control at 250 g/ha [1] [%]	plant injury at 15.625 g/ha (corn (Zea mays) [2]) [%]	plant injury at 62.5 g/ha (corn (Zea mays) [2]) [%]	plant injury at 250 g/ha (corn (Zea mays) [2]) [%]	pest or weed control at 15.625 g/ha [3] [%]	pest or weed control at 62.5 g/ha [3] [%]	pest or weed control at 250 g/ha [3] [%]	pest or weed control at 15.625 g/ha [4] [%]	pest or weed control at 62.5 g/ha [4] [%]	pest or weed control at 250 g/ha [4] [%]	pest or weed control at 15.625 g/ha [5] [%]	pest or weed control at 62.5 g/ha [5] [%]	pest or weed control at 250 g/ha [5] [%]	pest or weed control at 15.625 g/ha [6] [%]	pest or weed control at 62.5 g/ha [6] [%]	pest or weed control at 250 g/ha [6] [%]	pest or weed control at 15.625 g/ha [7] [%]	pest or weed control at 62.5 g/ha [7] [%]	further results
CN1C[C@@H](c2ccc(C(F)(F)F)cc2)[C@H](C(=O)Nc2nnc(C(F)(F)F)[nH]2)C1=O (racemic) [Compound 1550]	0	0	0	0	10	30	0	0	0	0	0	0	0	30	40	0	0	0	0	0	pest or weed control at 250 g/ha [7]: 0%; plant injury at 15.625 g/ha (corn (Zea mays) [8]): 0%; plant injury at 62.5 g/ha (corn (Zea mays) [8]): 0%; plant injury at 250 g/ha (corn (Zea mays) [8]): 0%; pest or weed control at 15.625 g/ha [9]: 0%; pest or weed control at 62.5 g/ha [9]: 0%; pest or weed control at 250 g/ha [9]: 0%; pest or weed control at 15.625 g/ha [10]: 0%; pest or weed control at 62.5 g/ha [10]: 0%; pest or weed control at 250 g/ha [10]: 0%; pest or weed control at 15.625 g/ha [11]: 0%; pest or weed control at 62.5 g/ha [11]: 0%; pest or weed control at 250 g/ha [11]: 0%; pest or weed control at 15.625 g/ha [12]: 0%; pest or weed control at 62.5 g/ha [12]: 0%; pest or weed control at 250 g/ha [12]: 0%
CN1C[C@@H](c2ccc(C(F)(F)F)cc2)[C@H](C(=O)Nc2[nH]ncc2C#N)C1=O (racemic) [Compound 1551]	0	0	0	0	0	10	0	0	0	0	0	0	0	0	0	0	0	0	0	0	pest or weed control at 250 g/ha [7]: 0%; plant injury at 15.625 g/ha (corn (Zea mays) [8]): 0%; plant injury at 62.5 g/ha (corn (Zea mays) [8]): 0%; plant injury at 250 g/ha (corn (Zea mays) [8]): 0%; pest or weed control at 15.625 g/ha [9]: 0%; pest or weed control at 62.5 g/ha [9]: 0%; pest or weed control at 250 g/ha [9]: 0%; pest or weed control at 15.625 g/ha [10]: 0%; pest or weed control at 62.5 g/ha [10]: 0%; pest or weed control at 250 g/ha [10]: 0%; pest or weed control at 15.625 g/ha [11]: 0%; pest or weed control at 62.5 g/ha [11]: 0%; pest or weed control at 250 g/ha [11]: 0%; pest or weed control at 15.625 g/ha [12]: 0%; pest or weed control at 62.5 g/ha [12]: 0%; pest or weed control at 250 g/ha [12]: 0%
CN1C[C@@H](c2ccc(C(F)(F)F)cc2)[C@H](C(=O)Nc2ccc(F)nc2)C1=O (racemic) [Compound 1555]	0	0	40	0	10	0	0	10	50	0	0	50	0	0	20	0	0	10	0	20	pest or weed control at 250 g/ha [7]: 70%; plant injury at 15.625 g/ha (corn (Zea mays) [8]): 0%; plant injury at 62.5 g/ha (corn (Zea mays) [8]): 0%; plant injury at 250 g/ha (corn (Zea mays) [8]): 20%; pest or weed control at 62.5 g/ha [9]: 0%; pest or weed control at 250 g/ha [9]: 0%; pest or weed control at 15.625 g/ha [10]: 0%; pest or weed control at 62.5 g/ha [10]: 30%; pest or weed control at 250 g/ha [10]: 70%; pest or weed control at 15.625 g/ha [11]: 40%; pest or weed control at 62.5 g/ha [11]: 30%; pest or weed control at 250 g/ha [11]: 70%; pest or weed control at 15.625 g/ha [12]: 0%; pest or weed control at 62.5 g/ha [12]: 0%; pest or weed control at 250 g/ha [12]: 0%
